Legend:
[1] = tested on: CD19CAR^+EGFRt^+IMPDH2dm^+ Line E cells; assay: MPA resistance culture, IMPDH2dm-expressing Line E cells; assay type: cell-based, human; conditions: 1 uM MPA
[2] = tested on: control T cell line; assay: MPA resistance culture, control T cells without IMPDH2dm; assay type: cell-based, human; conditions: 1 uM MPA, control T cell line lacking IMPDH2dm

Compound: COc1c(C)c2c(c(O)c1C/C=C(\C)CCC(=O)O)C(=O)OC2 [MPA, mycophenolic acid]
- survival and/or proliferation in MPA [1]: not inhibited
- survival and/or proliferation in MPA [2]: inhibition
